Data on one compound can be found in patent publication US20140214336A1, “SYSTEMS AND METHODS FOR NETWORK-BASED BIOLOGICAL ACTIVITY ASSESSMENT” (PHILIP MORRIS PRODUCTS S.A., priority 2011, published 2014).

Experiment [1] concerns Normal human bronchial epithelial (NHBE) cells. The experiment in a line: Cell cycle arrest and S-phase re-entry in NHBE cell culture (fluorescent S-phase labeling / FACS). Type of experiment: cell-based. The protocol:
(§1) The systems and methods described herein have been tested using a well-understood cell culture experiment. […] The treated cells were then allowed to re-enter the cell cycle by removal of the CDKI from the media and washing. Re-entry of the cell cycle was experimentally confirmed by labeling the cells fluorescently in S-phase at 2, 4, 6 and 8 hours after the CDKI was removed and the cells were washed. The gene transcription profiles of cells that were sampled 2, 4, 6, and 8 hours after the removal of the CDKI, were obtained. Profiles of cells that were continuously exposed to CDKI in media were also obtained. To identify biological processes and mechanisms that were differentially activated when CDKI was removed, network perturbation amplitude scores were calculated using gene transcription profiles of the washed cells obtained at various time point. For the computation of a NPA score for the perturbation associated with the removal of CDKI, a cell cycle subnetwork that comprises 127 nodes and 240 edges, was used. It is a subnetwork of the cell proliferation network model published in […] et al. (2011, “A computable cellular stress network model for non-diseased pulmonary and cardiovascular tissue” BMC Syst Biol. Oct 19; 5:168, which is incorporated herein by reference in its entirety). […]

Experiment [2] concerns cell cycle subnetwork in NHBE cells. As to the kind of experiment: Network perturbation amplitude (NPA) score on the cell cycle subnetwork, from gene transcription profiles of NHBE cells. The settings on record: from 2-hour to 8-hour time point after removal of CDKI, versus cells continuously exposed to CDKI; subnetwork of 127 nodes and 240 edges. Type of experiment: cell-based, human. The protocol: as §1

Consider `CC(=O)c1c(C)c2cnc(Nc3ccc(N4CCNCC4)cn3)nc2n(C2CCCC2)c1=O` [PD-0332991], for which the “number of cells in S-phase (FACS analysis, FIG. 17)” value in experiment [1] (2, 4, 6 and 8 hours after the CDKI was removed and the cells were washed) is “increase”. For the same compound, in experiment [1] (NHBE cells exposed to the CDKI in media), the “effect on cell cycle” value is reported as “arrests the cells in G1”. Moreover, in experiment [2], the “NPA scores (FIG. 18)” value was “increase”.
